Source: a melting point compilation (Tetko et al.; mined from patent text by program, amines drawn as free bases though some values may be those of a salt)

melting point [°C]	SMILES
289	COc1cccc(-c2nc3nccnc3[nH]2)c1
174 to 175	Cc1nc2c(c(=O)[nH]1)CC(C)C2 (stereo not given)
234 to 236	CC(=O)OCC(=O)Nc1cccc2c1C(=O)N(C1CCC(=O)NC1=O)C2=O (stereo not given)
202 to 203	CN(c1cc(OC(F)(F)F)cc2cc(C3=NCC(CC(N)=O)S3)[nH]c12)S(=O)(=O)c1cccs1 (stereo not given)
158 to 160	COc1ccc(COC(=O)CC(=O)Oc2ccc3sc4nc(-c5ccc(OC)cc5)cn4c3c2)cc1
111 to 113	Cc1nc(NC(=O)c2cccc(S(C)(=O)=O)c2)sc1C(=O)NCc1ccccc1
104 to 108	O=C(O)c1ccc(CCCC2SCC(=O)N2CCC2(O)CCCCC2)cc1Cl (stereo not given)
110 to 112	Cc1c(CC(=O)OCCO[N+](=O)[O-])cc(-c2ccc(S(C)(=O)=O)cc2)n1-c1ccc(F)cc1
142 to 144	c1ccc(N2CCN3C(NN4CCOCC4)=Nc4ccccc4N3CC2)cc1
165 to 167	S=C(NCc1ccccc1)Nc1nccs1
135 to 137	Cc1ccc(Cl)c(Nc2ccccc2-c2nsc(=O)o2)c1Cl
99 to 100	CCOC(=O)c1cnc(SC)nc1NCc1ccc(OC)c([N+](=O)[O-])c1
> 270	Cc1nc2cc(Sc3cccc4cnccc34)c([N+](=O)[O-])cc2c(=O)[nH]1
173 to 175	CC(C)(Oc1ccc(NC(=O)Cc2ccccc2)cc1)C(=O)O
178	Cc1cc(OCC2(O)CCS(=O)(=O)CC2)cc(C)c1-c1cccc(CNc2ccc(CCC(=O)O)c(F)c2)c1
211 to 212	COc1ccc(CSc2nnc(-c3ccc4nccn4c3)o2)cc1C#N
196	CC1=NN(C(=O)NS(=O)(=O)c2c(F)cccc2F)CC1
175 to 185	O=C(Nc1cccc2c(-n3ccnc3)c(Br)cnc12)c1c(-n2ccnc2)cccc1-n1ccnc1
100 to 102	CNC(=O)[C@H](CCCCNC(=O)OCc1ccccc1)NC(=O)OC(C)(C)C
178	CCC(=NNC(=O)c1ccccc1)c1ccncc1
140 to 142	CO/C=C(/C(=O)OC)c1ccccc1Oc1nc(Cl)nnc1Cl
176	COc1ccc2c(cccc2[C@H]2CO[C@H](CCCNC(=O)OCC(=O)NC3CC3)OC2)c1
110 to 111	COC(=O)NOCC(=O)OCOC(=O)Oc1c(Br)cc(C#N)cc1Br
160 to 162	COC(=O)C1=C(C)OC(OC)(OC)CC1NC(C)=O (stereo not given)

melting point [°C]	SMILES
164 to 166	CS(=O)(=O)N(C(=O)c1ccccc1)c1cc2occc(=O)c2cc1Oc1ccccc1
184 to 185	CCN(c1ccc2c(c1)OCO2)c1nc(=O)c2cccnc2s1
167 to 168	CCCCn1nc(C=O)nc1Cc1ccc(-c2ccccc2-c2nnn[nH]2)nc1
159 to 160	CCCc1c(C#N)ccc(NC(=NC#N)Nc2ccccc2Cl)c1O
229 to 233	CC1CCN(C=Nc2ccc3c(c2)C(=O)c2ccc(N=CN4CCC(C)CC4)cc2C3=O)CC1
196 to 197	CC(C)n1cc(-c2c(-c3ccccc3)nn3ccncc23)ccc1=O
90.5 to 91.5	CC(C)NC(=O)C1(C(C)C)CCCC1C (stereo not given)
260 to 262	N#Cc1cccc2c(N)c([N+](=O)[O-])ccc12
51	COC(=O)C1CSCC1=O (stereo not given)
267 to 277	COC(=O)c1cc2cc3[nH]c(=O)oc3cc2[nH]1
174 to 175	CN1CCN(c2cccc3ccc(NC(=O)c4ccc(Cl)cc4)cc23)CC1
110 to 112	O=c1ccc2ccc(CC3CO3)cc2o1 (stereo not given)
151 to 153	CC(C)c1cccc(C(C)C)c1NC(=O)C1c2ccccc2OCc2nc(Br)ccc21 (stereo not given)
198 to 201	NNc1nnc(Cl)cc1C(=O)O
92 to 94	Brc1cccc2nonc12
150 to 154	C#Cc1cccc(NC(=O)CCCC(=O)O)c1
137	NCC1(O)CCN(CC2OCCO2)CC1
186 to 188	COc1ccc2c(c1)CN(C(C)=O)N=C2Cc1c(Cl)cncc1Cl
254 to 255	O=C(O)c1cc(S)c(Cl)cc1Cl
195	Clc1ccc(Cn2nncc2CN2CCC(c3ccccc3)(c3ccccc3)CC2)cc1
177 to 178	CCCc1nc2c(N)nc3ccccc3c2n1CCC(=O)NC
32 to 34	COC(=O)CSc1cccc(Br)n1
146 to 147	CN(c1cccc2cc(C3=NCC(C)(CN4CCOCC4)S3)[nH]c12)S(=O)(=O)c1cccs1 (stereo not given)
188 to 190	N#CNC(=N)CCc1ccccc1Sc1ccccc1CCC(=N)NC#N

melting point [°C]	SMILES
248 to 255	Cc1ccc(-c2cn(-c3ccc4c(c3)c3ccccc3n4C)c(-c3ccc(C)s3)n2)s1
87 to 88	CCc1cn(C[C@@H](C)O)c2ccc(F)c(Cl)c12
179 to 180	Cc1oc(-c2ccccc2)nc1COc1ccc2cc(CC3SC(=O)NC3=O)oc2c1 (stereo not given)
72 to 82	COC(=O)C(C)NC(=O)NCCCCC1CCSS1 (stereo not given)
82 to 85	O=C(O)COCCc1ccc(F)cc1
160 to 162	COc1ccnc(CCc2nc3cc(-c4ccc(S(=O)(=O)N5CCN(Cc6ccccc6)CC5)cc4)cnc3[nH]2)c1
197 to 199	CCNC(=O)c1ccc(-c2ccc3nnn(Cc4cc5cccnc5cc4F)c3n2)cc1Cl
161 to 162	COc1cc(OCC(=O)O)c(C)cc1SCc1ccc(-c2ccc(Cl)c(Cl)c2)cc1
185	CC(=O)OC1Cc2ccccc2N(C(N)=O)c2ccccc21 (stereo not given)
58	CCOC(=O)COc1cc(C)sc1C#N
164	COc1cccc(-c2nc(Cl)nc(Nc3ccc(O)cc3)n2)c1
113 to 116	CCCCc1nn(-c2cc(NC(=O)CC)ccc2Cl)c(=O)n1Cc1ccc(-c2ccccc2S(=O)(=O)NC(=O)c2ccccc2Oc2ccccc2)cc1
222 to 224	COc1ccccc1-c1coc2cc(O)ccc2c1=O
252	CCOC(=O)c1c(N)n(CC)c2nc(Cl)ccc2c1=O
117 to 118	COc1ccc(C2COc3ccc(-c4nnc(C)o4)cc32)cc1 (stereo not given)
65 to 67	O=S(=O)(Nc1ccc(Cl)cc1C=NOCc1ccc(C(F)(F)F)cc1C(F)(F)F)C(F)(F)F
276	Cn1cc(C(=O)O)c(=O)c2cc3cc(F)c(N4CCNC(c5ccc(OCCO)cc5)C4)cc3nc21 (racemic)
124 to 126	C=C1C(c2ccccc2)=C(c2ccc(S(C)(=O)=O)cc2)C1(Cl)Cl
167	O=C1CC(C(=O)NC(c2ccccc2)c2ccc(Cl)cc2)Oc2ccc(F)cc21 (single isomer, unassigned; (+))
109 to 111	COc1c(Cl)ccc(-c2nc(C(=O)OC(C)C)c(Cl)c(N)c2F)c1F
> 310	Cn1cnnc1SC1=C(c2cc(Cl)ccc2O)C2C=C(C(F)(F)F)C=CC2NC1=O (stereo not given)
114 to 117	Nc1cccc(C(=O)c2cccc(C(=O)c3cccc(N)c3)c2)c1
265 to 275	c1ccc(COc2ccc3nc(-c4ccc(OCc5ccccc5)c(C56CC7CC(CC(C7)C5)C6)c4)[nH]c3c2)cc1
86 to 87	CC#CNc1c([N+](=O)[O-])cc(C(F)(F)F)c(Cl)c1[N+](=O)[O-]

melting point [°C]	SMILES
268 to 270	O=C1Cc2cc(C(=O)N3CCN(C(=O)c4ccccc4)CC3)ccc2N1
195 to 197	Cc1sc(N)c(C(=O)c2cccc3ccccc23)c1C
122 to 124	CCC(C)(Cc1c[nH]c2ccccc12)NC=O (stereo not given)
238 to 239	CC(=O)Nc1c([N+](=O)[O-])cc(Br)cc1[N+](=O)[O-]
99 to 102	CCOC(=O)c1cc(Oc2cc(Cl)c(Cl)cc2Cl)ccc1[N+](=O)[O-]
162 to 163	COc1cc(OC)cc(\C(C)=C/C=C/C(C)=C/C(=O)Nc2ccc(O)cc2)c1
> 295	Nc1cc(=O)[nH]c(=O)n1C1CCc2ccccc21 (stereo not given)
165 to 167	CCOC(=O)CN1CCN(C(C)(C)C=CC(=O)Nc2cc3c(Nc4ccc(F)c(Cl)c4)ncnc3cc2OCC2CC2)CC1
77	O=[N+]([O-])c1ccc2c(c1)C(N1CCCC1)C(O)CC2 (stereo not given)
230	Cc1cc(-c2cc(C(F)(F)F)n3ncc(C(=O)Nc4cccc(S(=O)(=O)NC(C)(C)CO)c4)c3n2)ccc1C(F)(F)F
188 to 193	Cc1ccc(C(C#N)(Cc2c[nH]cn2)c2ccccc2)cc1 (stereo not given)
184 to 185	O=C1CN(c2ccccc2)C(=O)N1C(=O)c1ccccc1Cl
109 to 112	O=c1occ(CSc2ccc([N+](=O)[O-])cc2)o1
159 to 160	CC(C(=O)O)c1cccc2c1Oc1ccccc1CC2=O (stereo not given)
106 to 109	CCCCCCCCC(=O)NCC(=O)O
187 to 188	COc1ccc(S(=O)(=O)Nc2ccc(OC)nc2Nc2ccccc2)cc1
197 to 199	COc1cccc(-c2nc(C(=O)OC(C)(C)C)c(-c3ccncc3)[nH]2)c1
205 to 207	O=C1c2ccccc2C(=O)N1CCc1ccc(OC2c3ccccc3CCc3ccccc32)cc1
147 to 148	COc1ccc(-c2noc3c2CCC(C(=O)O)CC3)cc1 (stereo not given)
121	Clc1ccc(-c2nc(Cl)c3c(n2)CCCC3)cc1
212 to 214	Cc1nc(NC(=O)c2ccc(Cl)c(Cl)c2)sc1C(=O)NCc1ccccc1
58 to 59	C=CCOC(=O)c1ccc(N)cc1O
158 to 161	OC(COc1ccn(-c2ccc(Cl)c(Cl)c2)n1)CN1CCOCC1 (stereo not given)

SMILES	melting point [°C]
Fc1ccc2sc(CCl)nc2c1	99 to 101
CC12CCC3C(CCC4=CC(=O)C=C(CO)C43C)C1CCC2=O (stereo not given)	201 to 202
CC(C)(CO)NC(=O)c1nn(-c2c(F)cc(F)cc2F)c2c1C1CCC2C1 (stereo not given)	122 to 125
CC(NC(=O)C(O)c1cc(F)cc(F)c1)C(=O)NC1N=C(c2ccccc2)c2ccccc2N(C)C1=O (stereo not given)	128
COc1cccc(N(C)C(=O)Oc2ccc(C(F)(F)F)cc2)n1	85 to 86
